Experimental data taken from paper PMC7011974, “Benzimidazole derivatives endowed with potent antileishmanial activity” (Journal of Enzyme Inhibition and Medicinal Chemistry, 2017).
Where two headings read alike, the source gives them in different places.

Tests used:
L. tropica promastigotes = assay: Antileishmanial activity on L. tropica promastigotes (MTT); type: cell-based, Leishmania tropica; conditions: for IC50: Leishmania tropica, 72 h, read-out: IC50 (µM) L. tropica
[1] = tested on: L. infantum promastigotes; assay: Antileishmanial activity on L. infantum promastigotes (MTT); type: cell-based, Leishmania infantum; conditions: for IC50: Leishmania infantum, 72 h, read-out: IC50 (µM) L. infantum; for Fold more potent than miltefosine against L. infantum, taking the lowest literature IC50 (15 μM): miltefosine IC50 15 μM from literature
[2] = Cytotoxicity on Vero-76 cells (crystal violet); conditions: monkey, Vero-76 cells
[3] = tested on: monkey kidney (Vero76) cells; assay: Cytotoxicity on Vero-76 cells (crystal violet)
[4] = tested on: human microvascular endothelial cell line (HMEC-1); assay: Cytotoxicity on HMEC-1 cells (MTT); type: cell-based; conditions: for IC50: Homo sapiens, cytotoxicity, HMEC-1 cells, MTT; for Selectivity index (SI) range versus HMEC cells: range over L. tropica and L. infantum; for SI L. infantum (IC50 HMEC-1/IC50 L. infantum) / SI L. tropica (IC50 HMEC-1/IC50 L. tropica): selectivity index
[5] = tested on: intramacrophagic amastigote stage of L. infantum; assay: In vitro intracellular amastigote susceptibility assay in THP-1 macrophages; type: cell-based, Leishmania infantum; conditions: for IC50: Leishmania infantum, THP-1 macrophages, 72 h, read-out: IC50 against intramacrophagic amastigote stage of L. infantum
Procedure: (b) In vitro intracellular amastigote susceptibility assays. […] Cell monolayers were then washed and incubated with compounds for 72 h. Slides were fixed with methanol and stained with Giemsa. The percentage of infected macrophages in treated and non-treated cells was determined by light microscopy.

[6] = tested on: 24 human cancer cell lines; design: method as in ref 25b = [25]; 25 (a) Novelli F , Tasso B , Sparatore F. Synthesis and biological investigations of 2-(tetrahydropyran-2'-yl) and 2-(tetrahydrofuran-2'-yl)benzimidazoles . Farmaco 1997; 52 : 499 – 507 . (b) Tonelli; conditions: ref 25b; read-out: GI50 against 24 human cancer cell lines; cited from earlier work
[7] = tested on: renal cancer cell line UO31; design: method as in ref 25b = [25]; 25 (a) Novelli F , Tasso B , Sparatore F. Synthesis and biological investigations of 2-(tetrahydropyran-2'-yl) and 2-(tetrahydrofuran-2'-yl)benzimidazoles . Farmaco 1997; 52 : 499 – 507 . (b) Tonelli; conditions: ref 25b; cited from earlier work
[8] = tested on: Coxsackie virus B5 (CVB-5); design: method as in ref 24c = [24]; 24 (a) Tonelli M , Paglietti G , Boido V , et al Antiviral activity of benzimidazole derivatives. I. Antiviral activity of 1-substituted-2-[(benzotriazol-1/2-yl)methyl]benzimidazoles . Chem Biodivers; conditions: ref 24c; cited from earlier work
[9] = tested on: respiratory syncytial virus (RSV); design: method as in ref 24c = [24]; 24 (a) Tonelli M , Paglietti G , Boido V , et al Antiviral activity of benzimidazole derivatives. I. Antiviral activity of 1-substituted-2-[(benzotriazol-1/2-yl)methyl]benzimidazoles . Chem Biodivers; conditions: ref 24c; cited from earlier work
in vitro = conditions: monkey
[10] = promastigotes, MTT, starred values mean of two experiments
[11] = fold potency versus miltefosine
[12] = percent of amphotericin B potency, calculated for each experiment

SMILES	IC50 (L. tropica promastigotes; [10]) [µM]	Ratio IC50 miltef./IC50 compd., L. tropica (L. tropica promastigotes; [11])	IC50 amph. B ×100/IC50 compd., L. tropica (L. tropica promastigotes; [12])	IC50 ([1]; promastigotes, MTT) [µM]	Ratio IC50 miltef./IC50 compd., L. infantum [1, 11]	IC50 amph. B ×100/IC50 compd., L. infantum [1, 12]	IC50 [2] [µM]	SI L. infantum (IC50 Vero76/IC50 L. infantum) ([3]; selectivity index, Vero76)	SI L. tropica (IC50 Vero76/IC50 L. tropica) ([3]; selectivity index, Vero76)	IC50 [4] [µM]	other results
COc1ccc(-c2nc3cc(C(F)(F)F)ccc3n2C[C@@H]2CCCN3CCCC[C@H]23)cc1 [Compound 38]	6.54 ± 0.18	6.6	2.71	11.2 ± 1.33	2.8	1.86	75	6.68	11.47		
CC(=O)c1ccc2c(c1)nc(Cc1ccc(Cl)cc1)n2C[C@@H]1CCCN2CCCC[C@H]12 [Compound 30]	12.1 ± 4.06	3.6	1.46	15.9 ± 3.21	2.0	1.32	> 100	>6.30	>8.24		
CCCCCCCCCCCc1n(C)c2ccccc2[n+]1CCC.[I-] [Compound 4, 1-Methyl-3-propyl-2-undecyl-1 H-benzimidazol-3-ium iodide]	0.46	94.0	17.9	0.27 ± 0.01			2.6	9.63	5.65	2.01 ± 0.24	Fold more potent than miltefosine against L. infantum, taking the lowest literature IC50 (15 μM) [1]: 55 fold; Selectivity index (SI) range versus HMEC cells [4]: 2.3–7.4; SI L. infantum (IC50 HMEC-1/IC50 L. infantum) [4]: 7.44; SI L. tropica (IC50 HMEC-1/IC50 L. tropica) [4]: 4.37; melting point: 140.2 to 145 °C
FC(F)(F)c1ccc2c(c1)nc(Cc1ccc(Cl)cc1)n2C[C@@H]1CCCN2CCCC[C@H]12 [Compound 28, 2-(4-chlorobenzyl)-1-lupinyl-5-trifluoromethylbenzimidazole]	3.7 ± 1.19		4.8	4.76 ± 1.6		4.4				16.9	Reduction of the amastigote infection of THP-1 cells ([5]; 2 μM concentration): 33.2%; IC50 [5]: > 2 µM; GI50 [6]: < 5 µM; GI50 [7]: 0.019 µM; EC50 [8]: 13 µM; EC50 [9]: 15 µM; IC50 (in vitro): > 100 µM
CCCCCCCCCCCCCCCc1n(C)c2ccccc2[n+]1C.[I-] [Compound 8, 1,3-Dimethyl-2-pentadecyl-1 H-benzimidazol-3-ium iodide]	0.19 ± 0.06			0.34 ± 0.12		27.8	5.8			0.78 ± 0.06	Fold more potent than miltefosine against L. infantum, taking the lowest literature IC50 (15 μM) [1]: 43 fold; Selectivity index (SI) range versus HMEC cells [4]: 2.3–7.4; SI L. infantum (IC50 HMEC-1/IC50 L. infantum) [4]: 2.29; SI L. tropica (IC50 HMEC-1/IC50 L. tropica) [4]: 4.10; Fold increased potency with respect to miltefosine, amastigotes ([5]; L. infantum amastigotes in THP-1): 3.35 fold; IC50 [5]: 0.313 µM; melting point: 169 to 172 °C
O=[N+]([O-])c1ccc2c(c1)nc(Cc1ccc(Cl)cc1)n2C[C@@H]1CCCN2CCCC[C@H]12 [Compound 33]											IC50 amph. B ×100/IC50 compd., L. tropica (L. tropica promastigotes): 2.63; Ratio IC50 miltef./IC50 compd., L. tropica (L. tropica promastigotes): 11.0; IC50 (L. tropica promastigotes): 3.92 ± 1.43 µM; IC50 amph. B ×100/IC50 compd., L. infantum [1]: 1.73; Ratio IC50 miltef./IC50 compd., L. infantum [1]: 4.6; IC50 [1]: 6.82 ± 1.25 µM; IC50 (in vitro): 68 µM; SI L. infantum (IC50 Vero76/IC50 L. infantum) [3]: 9.97; SI L. tropica (IC50 Vero76/IC50 L. tropica) [3]: 17.35
Oc1ccc(-c2nc3cc(C(F)(F)F)ccc3n2C[C@@H]2CCCN3CCCC[C@H]23)cc1 [Compound 37]	13.5 ± 2.21	3.2	1.31	17.4 ± 1.49	1.8	1.20	78	4.49	5.76		
FC(F)(F)c1ccc2c(c1)nc(-c1ccc(Cl)cc1)n2C[C@@H]1CCCN2CCCC[C@H]12 [Compound 36, N-lupinyl-5-trifluoromethyl-2-(4-chlorophenyl)benzimidazole]	12.6 ± 4.54	3.4	0.69	12.5 ± 3.51	2.5	0.95	24	1.92	1.90		
